Experimental data reported in US20080132577A1, “Use of agomelatine in obtaining medicaments intended for the treatment of smith-magenis syndrome” (LES LABORATOIRES SERVIER, priority 2006, published 2008).

Columns and labels:
[1] = system: children with Smith-Magenis syndrome; assay: Exploratory phase II clinical study in children with Smith-Magenis syndrome (actigraphy, Achenbach questionnaire); format: in vivo, human; conditions: agomelatine 1-5 mg/kg co-administered with acebutolol 10 mg/kg
Protocol: An exploratory phase II study was carried out in children with Smith-Magenis syndrome. Agomelatine 1-5 mg/kg was co-administered with acebutolol 10 mg/kg, a […]. The main analysis criteria were actigraphy parameters recorded over five periods of 30 consecutive days, after 30 days of treatment, and 3, 5 and 15 months of treatment, and also the Achenbach questionnaire, allowing the behaviour disorders to be assessed.
These major effects were carried over to the families, who, following the highly positive consequences of the treatment on family life, requested continuation of the treatment on a compassionate basis.

[2] = system: patients; assay: Clinical trials of agomelatine: acceptability, tolerability and drug interactions; format: in vivo, human
From the text: In fact, agomelatine makes it possible to act simultaneously on the behaviour disorders and on the resynchronisation of disturbed circadian rhythms.

[3] = system: Smith-Magenis syndrome patients; conditions: evening exogenous melatonin with morning beta-adrenergic antagonists; cited from earlier work
[4] = actigraphy, up to 15 months of treatment

SMILES	behaviour (behaviour disorders, Achenbach questionnaire) [1]	clinical improvement found by a specialist [1]	sleep quality recorded [1]	duration of daytime naps [1, 4]	duration of night waking [1, 4]	frequency of night waking [1, 4]	drug interactions ([2]; human, in vivo)	clinical and biological tolerability ([2]; more than 4000 patients exposed in clinical trials)	activity in respect of the behaviour disorders [3]
COc1ccc2cccc(CCNC(C)=O)c2c1 [agomelatine, N-[2-(7-methoxy-1-naphthyl)ethyl]acetamide]	Real progress in relation to behaviour	Major clinical improvement	a calm, deep sleep, less-broken nights and less-early waking in the morning	reduction in the duration of daytime naps	reduction	reduction	no drug interactions	excellent clinical and biological tolerability	
COc1ccc2[nH]cc(CCNC(C)=O)c2c1 [melatonin]									no activity
